Data from ChEMBL document CHEMBL6109084 (Eur J Med Chem, 2025).
Values after ≈ are worked out from the molar mass of the structure shown. Values joined by “and” are separate entries in the source; they are usually repeats but may differ in a detail not shown here. Equal values may be shown once. Active and inactive are the calls of the source. The calls are words filed in the database; no cut-off is given here.

Tests used:
[1] = biological target: Chymotrypsin (Homo sapiens, UniProt Q99895+P17538+P40313+Q6GPI1); experiment: Inhibition of chymotrypsin (unknown origin) using N-Suc-Ala-Ala-Pro-Phe-pNA as substrate incubated for 30 mins followed by substrate addition and measured after 60 mins by microplate reader analysis; type: protein assay
[2] = biological target: Trypsin (Homo sapiens, UniProt P07477+P07478+P35030); experiment: Inhibition of trypsin (unknown origin) using Bz-Ile-Glu(gamma-OR)-Gly-Arg-pNA.HCl as substrate incubated for 30 mins followed by substrate addition and measured after 60 mins by microplate reader analysis; type: protein assay
[3] = test system: Plasma; experiment: Anticoagulant activity in citrated human plasma assessed as prolongation of prothrombin time incubated for 3 mins by PT reagent based automated coagulometric analysis; type: functional, cell-free
[4] = physchem; conditions: aqueous medium, pH 7.4
Description: Aqueous solubility of the compound in DMSO at pH 7.4 incubated for 12 hrs by turbidimetric based UV spectrophotometric analysis

[5] = Selectivity index, ratio of IC50 for inhibition of tPA (unknown origin) using H-D-Ile-Pro-Arg-pNA-2HCl as substrate to IC50 for inhibition of human FXIa using p-Glu-Pro-Arg-pNA.HCl as substrate
[6] = test system: Plasma; experiment: Anticoagulant activity in citrated human plasma assessed as prolongation of activated partial thromboplastin time incubated for 3 mins by aPTT reagent based automated coagulometric analysis; type: functional; conditions: for EC1.5: 0.05 h
[7] = biological target: Plasma kallikrein (Homo sapiens, UniProt P03952); experiment: Inhibition of PKal (unknown origin) using H-D-Pro-Phe-Arg-pNA.2HCl as substrate incubated for 30 mins followed by substrate addition and measured after 60 mins by microplate reader analysis
Plasma kallikrein, sequence (P03952 20-390 limits assumed): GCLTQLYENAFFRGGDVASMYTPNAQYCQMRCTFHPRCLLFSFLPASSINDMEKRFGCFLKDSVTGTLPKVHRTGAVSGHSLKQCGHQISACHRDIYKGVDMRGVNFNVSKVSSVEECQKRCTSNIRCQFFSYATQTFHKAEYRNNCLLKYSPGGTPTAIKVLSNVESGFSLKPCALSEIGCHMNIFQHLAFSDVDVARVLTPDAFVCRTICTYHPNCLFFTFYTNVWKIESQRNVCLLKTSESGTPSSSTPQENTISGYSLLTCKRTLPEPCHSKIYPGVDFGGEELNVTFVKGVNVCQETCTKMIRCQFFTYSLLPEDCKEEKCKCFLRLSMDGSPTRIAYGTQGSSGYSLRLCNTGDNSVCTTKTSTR
Plasma kallikrein, sequence (P03952 391-638 limits assumed): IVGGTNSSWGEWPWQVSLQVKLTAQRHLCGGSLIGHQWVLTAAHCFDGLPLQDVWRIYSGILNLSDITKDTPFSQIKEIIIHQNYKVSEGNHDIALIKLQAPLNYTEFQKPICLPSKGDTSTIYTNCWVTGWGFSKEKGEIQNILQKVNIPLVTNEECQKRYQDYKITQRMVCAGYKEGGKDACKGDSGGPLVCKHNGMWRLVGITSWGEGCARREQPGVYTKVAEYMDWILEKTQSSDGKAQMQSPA

[8] = biological target: Coagulation factor X (Homo sapiens, UniProt P00742); experiment: Inhibition of FXa (unknown origin) using Z-D-Arg-Gly-Arg-pNA.2HCl as substrate incubated for 30 mins followed by substrate addition and measured after 60 mins by microplate reader analysis
Coagulation factor X, sequence (P00742 41-179 limits assumed): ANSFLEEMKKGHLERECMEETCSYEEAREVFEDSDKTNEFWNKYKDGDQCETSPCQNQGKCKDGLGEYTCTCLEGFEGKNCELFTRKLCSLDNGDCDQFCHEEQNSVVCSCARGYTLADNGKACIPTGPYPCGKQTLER
Coagulation factor X, sequence (P00742 235-488 limits assumed): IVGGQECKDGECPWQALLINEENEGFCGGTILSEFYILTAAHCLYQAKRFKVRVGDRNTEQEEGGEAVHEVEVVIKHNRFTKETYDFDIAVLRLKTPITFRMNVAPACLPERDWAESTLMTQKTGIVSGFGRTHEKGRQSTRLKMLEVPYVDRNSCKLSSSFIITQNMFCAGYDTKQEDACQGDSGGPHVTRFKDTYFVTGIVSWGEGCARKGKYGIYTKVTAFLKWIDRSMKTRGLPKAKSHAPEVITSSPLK

[9] = biological target: Coagulation factor XI (Homo sapiens, UniProt P03951); experiment: Inhibition of human FXIa using p-Glu-Pro-Arg-pNA.HCl as substrate incubated for 30 mins followed by substrate addition and measured after 60 mins by microplate reader analysis
Coagulation factor XI, sequence (P03951 19-387 limits assumed): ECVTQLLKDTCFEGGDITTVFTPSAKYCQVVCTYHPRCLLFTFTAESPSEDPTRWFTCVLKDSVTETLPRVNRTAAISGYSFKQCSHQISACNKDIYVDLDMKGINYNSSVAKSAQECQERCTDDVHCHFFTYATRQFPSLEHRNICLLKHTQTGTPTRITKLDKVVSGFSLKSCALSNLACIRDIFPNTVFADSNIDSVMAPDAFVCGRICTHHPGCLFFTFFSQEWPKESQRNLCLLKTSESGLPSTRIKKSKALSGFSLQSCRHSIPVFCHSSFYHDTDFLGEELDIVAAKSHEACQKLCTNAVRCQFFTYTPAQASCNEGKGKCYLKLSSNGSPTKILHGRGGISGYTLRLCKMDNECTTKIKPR
Coagulation factor XI, sequence (P03951 388-625 limits assumed): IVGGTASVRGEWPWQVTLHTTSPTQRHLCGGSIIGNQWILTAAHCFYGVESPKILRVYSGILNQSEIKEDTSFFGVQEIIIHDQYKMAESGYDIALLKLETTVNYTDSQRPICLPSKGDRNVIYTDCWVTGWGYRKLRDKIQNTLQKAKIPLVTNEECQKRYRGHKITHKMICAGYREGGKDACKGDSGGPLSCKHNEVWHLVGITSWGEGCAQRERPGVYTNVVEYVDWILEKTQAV

[10] = biological target: T1, Coagulation factor XII (Homo sapiens, UniProt P00748); experiment: Inhibition of FXIIa (unknown origin) using H-D-ProPhe-Arg-pNA.2HCl as substrate incubated for 30 mins followed by substrate addition and measured after 60 mins by microplate reader analysis
T1 sequence (P00748 whole entry): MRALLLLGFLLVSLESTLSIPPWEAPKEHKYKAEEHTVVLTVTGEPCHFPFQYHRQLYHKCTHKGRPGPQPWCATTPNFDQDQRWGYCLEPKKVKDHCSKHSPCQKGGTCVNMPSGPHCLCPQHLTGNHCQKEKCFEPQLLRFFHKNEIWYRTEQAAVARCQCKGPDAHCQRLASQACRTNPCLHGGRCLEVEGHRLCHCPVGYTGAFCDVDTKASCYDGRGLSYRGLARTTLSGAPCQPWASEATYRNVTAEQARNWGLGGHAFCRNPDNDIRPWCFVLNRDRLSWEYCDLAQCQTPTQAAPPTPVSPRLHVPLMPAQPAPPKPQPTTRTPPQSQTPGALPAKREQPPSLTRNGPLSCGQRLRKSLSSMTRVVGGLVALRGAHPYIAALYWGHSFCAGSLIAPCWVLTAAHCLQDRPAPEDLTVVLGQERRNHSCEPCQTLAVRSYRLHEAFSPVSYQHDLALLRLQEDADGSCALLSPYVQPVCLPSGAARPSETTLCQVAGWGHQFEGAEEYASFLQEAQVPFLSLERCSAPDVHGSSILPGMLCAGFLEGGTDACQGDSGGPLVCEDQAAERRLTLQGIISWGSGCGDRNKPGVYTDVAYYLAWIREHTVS

[11] = Selectivity index, ratio of IC50 for inhibition of FXIIa (unknown origin) using H-D-ProPhe-Arg-pNA.2HCl as substrate to IC50 for inhibition of human FXIa using p-Glu-Pro-Arg-pNA.HCl as substrate
[12] = Selectivity index, ratio of IC50 for inhibition of chymotrypsin (unknown origin) using N-Suc-Ala-Ala-Pro-Phe-pNA as substrate to IC50 for inhibition of human FXIa using p-Glu-Pro-Arg-pNA.HCl as substrate
[13] = Selectivity index, ratio of IC50 for inhibition of FXa (unknown origin) using Z-D-Arg-Gly-Arg-pNA.2HCl as substrate to IC50 for inhibition of human FXIa using p-Glu-Pro-Arg-pNA.HCl as substrate
[14] = Selectivity index, ratio of IC50 for inhibition of plasmin (unknown origin) using PyroGlu-Phe-Lys-pNA.HCl as substrate to IC50 for inhibition of human FXIa using p-Glu-Pro-Arg-pNA.HCl as substrate
[15] = test system: Plasma; experiment: Anticoagulant activity in citrated human plasma assessed as prolongation of activated partial thromboplastin time at 1 uM incubated for 3 mins by aPTT reagent based automated coagulometric analysis relative to control; type: functional; conditions: 0.05 h
[16] = biological target: Tissue-type plasminogen activator (Homo sapiens, UniProt P00750); experiment: Inhibition of tPA (unknown origin) using H-D-Ile-Pro-Arg-pNA-2HCl as substrate incubated for 30 mins followed by substrate addition and measured after 60 mins by microplate reader analysis
Tissue-type plasminogen activator, sequence (P00750 whole entry): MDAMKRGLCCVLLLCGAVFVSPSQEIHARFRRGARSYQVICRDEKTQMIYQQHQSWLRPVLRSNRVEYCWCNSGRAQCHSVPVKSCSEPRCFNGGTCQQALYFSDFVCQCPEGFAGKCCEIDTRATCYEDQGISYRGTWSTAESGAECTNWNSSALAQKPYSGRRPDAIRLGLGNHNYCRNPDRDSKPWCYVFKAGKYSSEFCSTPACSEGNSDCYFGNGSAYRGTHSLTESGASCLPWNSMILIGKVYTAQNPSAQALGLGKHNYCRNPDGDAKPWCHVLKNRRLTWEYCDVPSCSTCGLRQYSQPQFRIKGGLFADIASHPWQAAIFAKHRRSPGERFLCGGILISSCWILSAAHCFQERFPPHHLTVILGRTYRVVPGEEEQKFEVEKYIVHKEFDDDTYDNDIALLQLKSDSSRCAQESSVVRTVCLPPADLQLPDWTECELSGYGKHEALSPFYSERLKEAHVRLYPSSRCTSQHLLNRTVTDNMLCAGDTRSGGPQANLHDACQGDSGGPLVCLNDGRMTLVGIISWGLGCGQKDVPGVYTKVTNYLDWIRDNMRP

[17] = biological target: Plasminogen (Homo sapiens, UniProt P00747); experiment: Inhibition of plasmin (unknown origin) using PyroGlu-Phe-Lys-pNA.HCl as substrate incubated for 30 mins followed by substrate addition and measured after 60 mins by microplate reader analysis
Plasminogen, sequence (P00747 97-580 limits assumed): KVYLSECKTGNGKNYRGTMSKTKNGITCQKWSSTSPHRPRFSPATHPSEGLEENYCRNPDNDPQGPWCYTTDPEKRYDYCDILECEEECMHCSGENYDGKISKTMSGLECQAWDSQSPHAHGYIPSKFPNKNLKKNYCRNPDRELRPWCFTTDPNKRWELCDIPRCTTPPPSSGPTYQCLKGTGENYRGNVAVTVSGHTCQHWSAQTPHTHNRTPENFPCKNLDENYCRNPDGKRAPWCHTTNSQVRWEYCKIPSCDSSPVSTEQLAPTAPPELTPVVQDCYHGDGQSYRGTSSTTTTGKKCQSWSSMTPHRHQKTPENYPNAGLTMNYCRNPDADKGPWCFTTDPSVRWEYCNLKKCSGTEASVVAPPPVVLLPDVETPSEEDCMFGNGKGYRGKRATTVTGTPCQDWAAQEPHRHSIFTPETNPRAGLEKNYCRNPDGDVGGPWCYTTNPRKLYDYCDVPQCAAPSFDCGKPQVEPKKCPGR
Plasminogen, sequence (P00747 581-810 limits assumed): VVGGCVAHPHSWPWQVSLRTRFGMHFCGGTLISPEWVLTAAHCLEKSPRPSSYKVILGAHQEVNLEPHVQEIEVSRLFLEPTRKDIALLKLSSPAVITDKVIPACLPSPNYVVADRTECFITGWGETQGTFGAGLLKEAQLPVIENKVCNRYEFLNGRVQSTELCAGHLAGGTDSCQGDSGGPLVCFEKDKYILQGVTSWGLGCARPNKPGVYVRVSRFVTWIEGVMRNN

[18] = Selectivity index, ratio of IC50 for inhibition of thrombin (unknown origin) using H-D-Phe-Pip-Arg-pNA.2HCl as substrate to IC50 for inhibition of human FXIa using p-Glu-Pro-Arg-pNA.HCl as substrate
[19] = Selectivity index, ratio of IC50 for inhibition of trypsin (unknown origin) using Bz-Ile-Glu(gamma-OR)-Gly-Arg-pNA.HCl as substrate to IC50 for inhibition of human FXIa using p-Glu-Pro-Arg-pNA.HCl as substrate
[20] = test system: HK-2; experiment: Cytotoxicity against human HK-2 cells assessed as reduction in cell viability at 10 to 50 uM incubated for 24 hrs by MTT assay; type: toxicity, cell-based; conditions: hk-2, 24 h, dose 10-50 µM
[21] = biological target: Prothrombin (Homo sapiens, UniProt P00734); experiment: Inhibition of thrombin (unknown origin) using H-D-Phe-Pip-Arg-pNA.2HCl as substrate incubated for 30 mins followed by substrate addition and measured after 60 mins by microplate reader analysis
[22] = Plasma protein binding in human; type: ADME, cell-free; conditions: read-out: PPB (converted)
[23] = test system: Plasma; experiment: Anticoagulant activity in mouse plasma assessed as prolongation of activated partial thromboplastin time incubated for 3 mins by aPTT reagent based automated coagulometric analysis; type: functional; conditions: 0.05 h
[24] = Metabolic stability in human liver microsome assessed as half life; type: ADME; conditions: liver microsomes
[25] = test system: HK-2; experiment: Cytotoxicity against human HK-2 cells assessed as reduction in cell viability at 1 to 50 uM incubated for 24 hrs by MTT assay; type: toxicity, cell-based; conditions: hk-2, 24 h, dose 1-50 µM
[26] = test system: HepG2; experiment: Cytotoxicity against human HepG2 cells assessed as reduction in cell viability at 1 to 50 uM incubated for 24 hrs by MTT assay; type: toxicity, cell-based; conditions: hepg2, 24 h, dose 1-50 µM
[27] = Apparent permeability in MDCK-MDR1 cells; type: ADME, cell-based, Canis lupus familiaris; conditions: dog
[28] = Cytotoxicity against human AC16 [Human hybrid] cells assessed as reduction in cell viability at 1 to 50 uM incubated for 24 hrs by MTT assay; type: toxicity, cell-based; conditions: dose 1-50 µM
[29] = Toxicity in C57BL/6J mouse assessed as prolongation of bleeding time at 30 mg/kg, IG measured after 30 mins by tail bleeding assay; type: organism-based; conditions: in vivo, po, 0.5 h

Compound | IC50 [1] [nM] | IC50 [2] [nM] | Ratio IC50 [5] | IC50 [7] [nM] | IC50 [8] [nM] | IC50 [9] [nM] | IC50 [10] [nM] | Ratio IC50 [11] | Ratio IC50 [12] | Ratio IC50 [13] | Ratio IC50 [14] | IC50 [16] [nM] | IC50 [17] [nM] | Ratio IC50 [18] | Ratio IC50 [19] | IC50 [21] [nM] | Activity [3] | Activity [6] | EC1.5 [6] [µM] | Activity [15] [%] | further results
COc1cn(Cc2cc(-c3ccncc3)ccn2)c(=O)cc1-c1cc(Cl)ccc1-n1cnnn1 | – | – | – | – | – | 1.2 | – | – | – | – | – | – | – | – | – | – | – | – | – | 167.2 | fraction unbound [22]: 0.159
COc1cn(Cc2cc(-c3ccc(N)nc3)ccn2)c(=O)cc1-c1cc(Cl)ccc1-n1cnnn1 | > 1000 | > 1000 | > 1000 | 97 | > 1000 | 0.19 | > 1000 | > 1000 | > 1000 | > 1000 | > 1000 | > 1000 | > 1000 | > 1000 | > 1000 | > 1000 | inactive | Dose-dependent-effect | 0.57 | 193.8 | half-life [24]: > 3 h; Activity [25]: Non-toxic; solubility kinetic at 12 h [4]: 193 µg/mL (≈ 396 µM); Activity [26]: Non-toxic; Papp [27]: 0.13 ×10⁻⁶ cm/s; Activity [28]: Non-toxic
CC[C@@H](C(=O)Nc1ccc(C(N)=O)c(F)c1)n1cc(OC)c(-c2cc(Cl)ccc2-n2cc(C(F)(F)F)nn2)cc1=O | > 1000 | > 1000 | – | – | > 1000 | – | > 1000 | – | – | – | – | > 1000 | > 1000 | – | – | > 1000 | – | Dose-dependent-effect | 0.42 | 250.8 | Activity [25]: Non-toxic; EC1.5 [23]: >=9.3 uM and >12.5 uM; Activity [26]: Non-toxic; Activity [29]: Non-toxic; Activity [28]: Non-toxic

Second part, led by results:

IC50 [1] [nM] | IC50 [2] [nM] | Ratio IC50 [5] | IC50 [7] [nM] | IC50 [8] [nM] | IC50 [9] [nM] | IC50 [10] [nM] | Ratio IC50 [11] | Ratio IC50 [12] | Ratio IC50 [13] | Ratio IC50 [14] | IC50 [16] [nM] | IC50 [17] [nM] | Ratio IC50 [18] | Ratio IC50 [19] | IC50 [21] [nM] | Compound | Activity [3] | Activity [6] | EC1.5 [6] [µM] | Activity [15] [%] | further results
> 1000 | > 1000 | > 1000 | 81 | > 1000 | 0.37 | > 1000 | > 1000 | > 1000 | > 1000 | > 1000 | > 1000 | > 1000 | > 1000 | > 1000 | > 1000 | CCC(c1cc(-c2ccc(N)nc2)ccn1)n1cc(OC)c(-c2cc(Cl)ccc2-n2cnnn2)cc1=O (racemic) | inactive | Dose-dependent-effect | 0.58 | 210.1 | solubility kinetic at 12 h [4]: 108 µg/mL (≈ 210 µM); Activity [20]: Toxic
– | – | – | – | – | 0.24 | – | – | – | – | – | – | – | – | – | – | CCC(c1cccc(-c2ccc(N)nc2)c1)n1cc(OC)c(-c2cc(Cl)ccc2-n2cnnn2)cc1=O (stereo not given) | – | – | – | 45.7 | fraction unbound [22]: 0.004
> 1000 | > 1000 | > 1000 | 36 | > 1000 | 0.31 | > 1000 | > 1000 | > 1000 | > 1000 | > 1000 | > 1000 | > 1000 | > 1000 | > 1000 | > 1000 | CC[C@@H](c1cc(-c2ccc(N)nc2F)ccn1)n1cc(OC)c(-c2cc(Cl)ccc2-n2cnnn2)cc1=O | inactive | Dose-dependent-effect | 0.34 | 335.4 | EC1.5 [23]: 1.5 µM
